For this test, the target named is T1, human orexin type 2 receptor (hOX2R) (Homo sapiens, UniProt O43614).
T1 construct: expressed in transfected cells
T1 sequence (O43614 1-444): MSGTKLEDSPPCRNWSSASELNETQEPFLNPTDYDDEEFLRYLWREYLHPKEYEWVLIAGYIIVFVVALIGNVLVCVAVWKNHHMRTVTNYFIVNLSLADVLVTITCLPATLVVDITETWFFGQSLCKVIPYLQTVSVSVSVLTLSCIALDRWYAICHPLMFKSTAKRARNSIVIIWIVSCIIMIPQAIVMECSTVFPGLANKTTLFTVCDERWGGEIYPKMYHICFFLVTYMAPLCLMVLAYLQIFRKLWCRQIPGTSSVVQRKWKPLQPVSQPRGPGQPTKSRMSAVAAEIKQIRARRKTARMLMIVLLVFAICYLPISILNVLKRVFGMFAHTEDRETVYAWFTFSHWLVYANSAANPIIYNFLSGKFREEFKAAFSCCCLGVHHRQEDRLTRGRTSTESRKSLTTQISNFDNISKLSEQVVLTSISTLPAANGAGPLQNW
Briefly: Measurement of orexin type 2 receptor agonist activity (FLIPR calcium fluorescence). The class given is cell-based. The conditions noted are these: for EC50: read-out: hOx2 pEC50 (converted); for Emax: CHO, read-out: hOx2 Emax (%). The gist of the method: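 Agonism was read as fluorescence in cells stably expressing human OX2R. E. is the response at 10 μM relative to orexin A as full agonist (100%).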

The mark [1] stands for this setting: CHO cells expressing hOX2R, FLIPR calcium fluorescence.

Where two headings read alike, the source gives them in different places.

As for `CC(C)S(=O)(=O)N[C@@H]1[C@H](Cc2cccc(-c3cc(F)cc(F)c3)c2F)N(C(=O)[C@H]2CCO2)CC12CC2` [Compound 222, N-((6S,7S)-5-((R)-oxetane-2-carbonyl)-6-((2,3′,5′-trifluoro-[1,1′-biphenyl]-3-yl)methyl)-5-azaspiro[2.4]heptan-7-yl)propane-2-sulfonamide], under setting [1], the EC50 is 0.0794 to 1 nM and the maximal response (Emax) was 90 to 100%.
The corresponding values for `O=C([C@H]1CCO1)N1CC2(CC2)[C@H](NS(=O)(=O)C2CC2)[C@@H]1Cc1cccc(-c2cc(F)cc(F)c2)c1F` [Compound 223, N-((6S,7S)-5-((R)-oxetane-2-carbonyl)-6-((2,3′,5′-trifluoro-[1,1′-biphenyl]-3-yl)methyl)-5-azaspiro[2.4]heptan-7-yl)cyclopropanesulfonamide] are 0.0794 to 1 nM and 90 to 100%.
On to `COC[C@H](F)C(=O)N1CC2(CC2)[C@H](NS(=O)(=O)CF)[C@@H]1Cc1cccc(-c2ccccc2)c1F` [Compound 224, 1-fluoro-N-((6S,7S)-5-((S)-2-fluoro-3-methoxypropanoyl)-6-((2-fluoro-[1,1′-biphenyl]-3-yl)methyl)-5-azaspiro[2.4]heptan-7-yl)methanesulfonamide], for which, under setting [1], the EC50 is 1 to 10 nM and the Emax was 90 to 100%.
The corresponding values for `N#C[C@]1(C(=O)N2CC3(CC3)[C@H](NS(=O)(=O)CF)[C@@H]2Cc2cccc(-c3ccccc3)c2F)CCO1` [Compound 226, N-((6S,7S)-5-((S)-2-cyanooxetane-2-carbonyl)-6-((2-fluoro-[1,1′-biphenyl]-3-yl)methyl)-5-azaspiro[2.4]heptan-7-yl)-1-fluoromethanesulfonamide] are 1 to 10 nM and 90 to 100%.
The corresponding values for `O=C([C@H]1CCO1)N1CC2(CC2)[C@H](NS(=O)(=O)CF)[C@@H]1Cc1cc(F)cc(-c2cc(F)cc(F)c2)c1F` [Compound 227, 1-fluoro-N-((6S,7S)-5-((R)-oxetane-2-carbonyl)-6-((2,3′,5,5′-tetrafluoro-[1,1′-biphenyl]-3-yl)methyl)-5-azaspiro[2.4]heptan-7-yl)methanesulfonamide] are 1 to 10 nM and 90 to 100%.
With `O=C(NCC1(F)CC1)N1CC2(CC2)[C@H](NS(=O)(=O)CF)[C@@H]1Cc1cc(F)cc(-c2ccccc2)c1F` [Compound 228, (6S,7S)-6-((2,5-difluoro-[1,1′-biphenyl]-3-yl)methyl)-N-((1-fluorocyclopropyl)methyl)-7-((fluoromethyl)sulfonamido)-5-azaspiro[2.4]heptane-5-carboxamide], under setting [1], the EC50 was 1 to 10 nM and the Emax was 90 to 100%.
Taken in the same sequence, the figures for `[2H]C([2H])([2H])c1cccc(-c2cccc(C[C@H]3[C@@H](NS(=O)(=O)CF)C4(CC4)CN3C(=O)[C@H]3CCO3)c2F)c1` [Compound 229, 1-fluoro-N-((6S,7S)-6-((2-fluoro-3′-(methyl-d3)-[1,1′-biphenyl]-3-yl)methyl)-5-((R)-oxetane-2-carbonyl)-5-azaspiro[2.4]heptan-7-yl)methanesulfonamide] were 0.0794 to 1 nM and 90 to 100%.
The corresponding values for `CC(C)(O)C(=O)N1CC2(CC2)[C@H](NS(=O)(=O)C2CC2)[C@@H]1Cc1cccc(-c2cc(F)cc(F)c2)c1F` [Compound 230, N-((6S,7S)-5-(2-hydroxy-2-methylpropanoyl)-6-((2,3′,5′-trifluoro-[1,1′-biphenyl]-3-yl)methyl)-5-azaspiro[2.4]heptan-7-yl)cyclopropanesulfonamide] are 1 to 10 nM and 90 to 100%.
Taken in the same sequence, the figures for `N#CC1(C(=O)N2CC3(CC3)[C@H](NS(=O)(=O)CF)[C@@H]2Cc2cccc(-c3cc(F)cc(F)c3)c2F)CCC1` [Compound 231, N-((6S,7S)-5-(1-cyanocyclobutane-1-carbonyl)-6-((2,3′,5′-trifluoro-[1,1′-biphenyl]-3-yl)methyl)-5-azaspiro[2.4]heptan-7-yl)-1-fluoromethanesulfonamide] were 1 to 10 nM and 90 to 100%.
As for `C[C@H](F)C(=O)N1CC2(CC2)[C@H](NS(=O)(=O)CF)[C@@H]1Cc1cccc(-c2cc(F)cc(F)c2)c1F` [Compound 232, 1-fluoro-N-((6S,7S)-5-((S)-2-fluoropropanoyl)-6-((2,3′,5′-trifluoro-[1,1′-biphenyl]-3-yl)methyl)-5-azaspiro[2.4]heptan-7-yl)methanesulfonamide], under setting [1], the EC50 was 0.0794 to 1 nM and the Emax was 90 to 100%.
The corresponding values for `C[C@@H](F)C(=O)N1CC2(CC2)[C@H](NS(=O)(=O)CF)[C@@H]1Cc1cccc(-c2cc(F)cc(F)c2)c1F` [Compound 233, 1-fluoro-N-((6S,7S)-5-((R)-2-fluoropropanoyl)-6-((2,3′,5′-trifluoro-[1,1′-biphenyl]-3-yl)methyl)-5-azaspiro[2.4]heptan-7-yl)methanesulfonamide] are 10 to 100 nM and 80 to 90%.
On to `C[C@](O)(C(=O)N1CC2(CC2)[C@H](NS(=O)(=O)CF)[C@@H]1Cc1cccc(-c2ccccc2)c1F)C(F)F` [Compound 234, N-((6S,7S)-5-((S)-3,3-difluoro-2-hydroxy-2-methylpropanoyl)-6-((2-fluoro-[1,1′-biphenyl]-3-yl)methyl)-5-azaspiro[2.4]heptan-7-yl)-1-fluoromethanesulfonamide], for which the Emax fell in the range of 90 to 100%. Besides, under setting [1], the EC50 is 1 to 10 nM.
Regarding `O=C(NCC1(F)CC1)N1CC2(CC2)[C@H](NS(=O)(=O)C(F)F)[C@@H]1Cc1cccc(-c2cc(F)cc(F)c2)c1F` [Compound 235, (6S,7S)-7-((difluoromethyl)sulfonamido)-N-((1-fluorocyclopropyl)methyl)-6-((2,3′,5′-trifluoro-[1,1′-biphenyl]-3-yl)methyl)-5-azaspiro[2.4]heptane-5-carboxamide], under setting [1], the EC50 is 1 to 10 nM and the Emax lay in the range of 90 to 100%.
Taken in the same sequence, the figures for `CC(F)(F)C(=O)N1CC2(CC2)[C@H](NS(C)(=O)=O)[C@@H]1Cc1cccc(-c2cccc(F)c2)c1F` [Compound 294, N-((6S,7S)-6-((2,3'-difluoro-[1,1′-biphenyl]-3-yl)methyl)-5-(2,2-difluoropropanoyl)-5-azaspiro[2.4]heptan-7-yl)methanesulfonamide] were 10 to 100 nM and 80 to 90%.
Taken in the same sequence, the figures for `CS(=O)(=O)N[C@@H]1[C@H](Cc2cccc(-c3ccccc3)c2)N(C(=O)[C@H](O)C(F)(F)F)CC12CC2` [Compound 299, N-((6S,7S)-6-([1,1′-biphenyl]-3-ylmethyl)-5-((S)-3,3,3-trifluoro-2-hydroxypropanoyl)-5-azaspiro[2.4]heptan-7-yl)methanesulfonamide] were 10 to 100 nM and 90 to 100%.
The corresponding values for `CS(=O)(=O)N[C@@H]1[C@H](Cc2cccc(-c3cccc(F)c3)c2)N(C(=O)[C@H]2CCO2)CC12CC2` [Compound 305] are 10 to 100 nM and 90 to 100%.
For the compound `C[C@@H](C#N)C(=O)N1CC2(CC2)[C@H](NS(C)(=O)=O)[C@@H]1Cc1cccc(-c2ccccc2)c1` [Compound 309, N-((6S,7S)-6-([1,1′-biphenyl]-3-ylmethyl)-5-((S)-2-cyanopropanoyl)-5-azaspiro[2.4]heptan-7-yl)methanesulfonamide], under setting [1], the EC50 was 10 to 100 nM and the Emax lay in the range of 90 to 100%.
Taken in the same sequence, the figures for `CCCS(=O)(=O)N[C@@H]1[C@H](Cc2cccc(-c3ccccc3)c2)N(C(=O)[C@H]2CCO2)CC12CC2` [Compound 310, N-((6S,7S)-6-([1,1′-biphenyl]-3-ylmethyl)-5-((R)-oxetane-2-carbonyl)-5-azaspiro[2.4]heptan-7-yl)propane-1-sulfonamide] were 10 to 100 nM and 90 to 100%.
The corresponding values for `COCCNC(=O)N1CC2(CC2)[C@H](NS(C)(=O)=O)[C@@H]1Cc1cccc(-c2ccccc2)c1F` [Compound 311, (6S,7S)-6-((2-fluoro-[1,1′-biphenyl]-3-yl)methyl)-N-(2-methoxyethyl)-7-(methylsulfonamido)-5-azaspiro[2.4]heptane-5-carboxamide] are 1 to 10 nM and 90 to 100%.
For `CO[C@H]1CCN(C(=O)N2CC3(CC3)[C@H](NS(C)(=O)=O)[C@@H]2Cc2cccc(-c3ccccc3)c2F)C1` [Compound 313, N-((6S,7S)-6-((2-fluoro-[1,1′-biphenyl]-3-yl)methyl)-5-((S)-3-methoxypyrrolidine-1-carbonyl)-5-azaspiro[2.4]heptan-7-yl)methanesulfonamide], under setting [1], the EC50 was 10 to 100 nM and the Emax is 90 to 100%.
Taken in the same sequence, the figures for `CS(=O)(=O)N[C@@H]1[C@H](Cc2cccc(-c3ccccc3)c2F)N(C(=O)NC2CC(F)C2)CC12CC2` (stereo partly drawn) [Compound 315, (6S,7S)-6-((2-fluoro-[1,1′-biphenyl]-3-yl)methyl)-N-(3-fluorocyclobutyl)-7-(methylsulfonamido)-5-azaspiro[2.4]heptane-5-carboxamide] were 10 to 100 nM and 80 to 90%.
The corresponding values for `CO[C@@H](C)CN(C)C(=O)N1CC2(CC2)[C@H](NS(C)(=O)=O)[C@@H]1Cc1cccc(-c2ccccc2)c1F` [Compound 316] are 1 to 10 nM and 90 to 100%.

The record behind these values is patent publication US12503475B2 (Centessa Pharmaceuticals (UK) Limited, priority 2020, dated 2025).
